Data reported in patent EP4745135A1 (Gluetacs Therapeutics (Shanghai) Co., Ltd., priority 2023, dated 2025).

Columns and labels:
[1] = molecular target: T1, human Cereblon WT GST-tagged protein (Homo sapiens, UniProt Q96SW2); assay: CRBN-binding affinity, HTRF (CEREBLON BINDING kit); details: for inhibition at 0.5 µM: read-out: Inhibition Rate at 0.5 µM (%); for inhibition at 2 µM: read-out: Inhibition Rate at 2 µM (%)
T1 construct: purchased CISBIO 64BDCRBNPEH

GSPT1 = assay: Western blot, degradation of substrate protein in hPBMCs; type: cell-based, Human
WEE1 = molecular target: T2, WEE1 (Homo sapiens, UniProt P30291+Q96SW2); assay: as above; type: cell-based
T2 construct: effects of the compounds of the present disclosure on the expression of target proteins in cells; endogenous in cells; host or cells: human PBMCs (Milecell Biotechnologies)
T2 sequence (P30291 whole entry): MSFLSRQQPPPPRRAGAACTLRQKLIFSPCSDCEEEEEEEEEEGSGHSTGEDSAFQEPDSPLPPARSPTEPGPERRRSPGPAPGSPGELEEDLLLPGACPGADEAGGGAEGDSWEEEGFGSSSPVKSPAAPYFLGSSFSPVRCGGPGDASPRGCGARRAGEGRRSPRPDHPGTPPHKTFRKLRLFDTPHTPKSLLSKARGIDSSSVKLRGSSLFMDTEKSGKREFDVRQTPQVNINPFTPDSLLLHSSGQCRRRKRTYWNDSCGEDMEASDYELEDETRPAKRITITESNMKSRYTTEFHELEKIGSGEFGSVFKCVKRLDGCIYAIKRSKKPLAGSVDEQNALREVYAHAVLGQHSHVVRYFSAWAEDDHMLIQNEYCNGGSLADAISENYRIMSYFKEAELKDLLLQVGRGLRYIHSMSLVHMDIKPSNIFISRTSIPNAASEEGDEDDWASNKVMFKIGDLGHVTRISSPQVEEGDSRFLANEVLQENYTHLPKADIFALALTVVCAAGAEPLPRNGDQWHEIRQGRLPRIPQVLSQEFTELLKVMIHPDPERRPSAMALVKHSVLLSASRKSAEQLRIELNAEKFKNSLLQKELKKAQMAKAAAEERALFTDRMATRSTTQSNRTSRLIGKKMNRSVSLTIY
T2 sequence (Q96SW2 whole entry): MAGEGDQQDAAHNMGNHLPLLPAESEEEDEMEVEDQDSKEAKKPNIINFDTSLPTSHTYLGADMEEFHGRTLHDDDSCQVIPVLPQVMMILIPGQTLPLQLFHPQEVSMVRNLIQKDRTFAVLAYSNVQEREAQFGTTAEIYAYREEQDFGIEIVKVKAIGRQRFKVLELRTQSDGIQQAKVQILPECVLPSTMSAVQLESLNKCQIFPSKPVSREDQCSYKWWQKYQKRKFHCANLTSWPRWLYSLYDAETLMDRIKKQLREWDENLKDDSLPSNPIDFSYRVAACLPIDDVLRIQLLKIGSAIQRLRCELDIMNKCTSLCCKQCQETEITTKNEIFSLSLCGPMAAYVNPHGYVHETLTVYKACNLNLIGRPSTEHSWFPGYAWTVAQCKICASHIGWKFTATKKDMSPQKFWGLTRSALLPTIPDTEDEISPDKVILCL
T2 sequence (Q16531 whole entry partner): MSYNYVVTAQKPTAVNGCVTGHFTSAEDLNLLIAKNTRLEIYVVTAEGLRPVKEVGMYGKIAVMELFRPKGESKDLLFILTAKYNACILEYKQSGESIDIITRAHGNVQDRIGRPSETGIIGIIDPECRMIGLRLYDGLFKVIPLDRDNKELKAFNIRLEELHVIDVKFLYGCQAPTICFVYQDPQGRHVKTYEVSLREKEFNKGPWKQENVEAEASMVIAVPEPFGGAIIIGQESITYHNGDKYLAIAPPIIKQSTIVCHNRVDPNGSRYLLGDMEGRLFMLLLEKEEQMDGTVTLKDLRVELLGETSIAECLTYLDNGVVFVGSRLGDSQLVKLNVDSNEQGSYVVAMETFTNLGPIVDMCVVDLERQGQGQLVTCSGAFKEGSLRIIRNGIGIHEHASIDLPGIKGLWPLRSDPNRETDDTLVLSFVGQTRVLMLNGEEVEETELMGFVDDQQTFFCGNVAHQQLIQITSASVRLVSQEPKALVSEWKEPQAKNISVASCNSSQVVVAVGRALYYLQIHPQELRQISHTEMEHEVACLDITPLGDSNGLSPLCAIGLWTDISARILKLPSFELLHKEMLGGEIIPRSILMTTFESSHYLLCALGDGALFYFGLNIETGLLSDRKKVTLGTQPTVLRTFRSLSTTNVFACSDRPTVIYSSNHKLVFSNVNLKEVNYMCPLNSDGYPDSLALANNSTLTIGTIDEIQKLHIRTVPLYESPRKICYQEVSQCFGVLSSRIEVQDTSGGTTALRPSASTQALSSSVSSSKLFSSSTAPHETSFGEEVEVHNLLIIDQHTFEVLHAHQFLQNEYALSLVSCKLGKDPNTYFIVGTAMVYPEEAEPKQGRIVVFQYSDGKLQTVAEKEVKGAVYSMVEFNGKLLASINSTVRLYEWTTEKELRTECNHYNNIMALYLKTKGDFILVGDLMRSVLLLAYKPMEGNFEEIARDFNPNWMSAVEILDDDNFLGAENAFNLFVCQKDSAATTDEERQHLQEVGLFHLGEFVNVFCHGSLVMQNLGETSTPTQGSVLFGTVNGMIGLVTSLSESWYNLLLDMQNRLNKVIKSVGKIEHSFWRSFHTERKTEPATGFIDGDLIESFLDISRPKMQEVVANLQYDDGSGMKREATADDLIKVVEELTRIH
Method: (§1) Conventional Western blot assay was performed to evaluate the effects of the compounds of the present disclosure on the expression of target proteins in cells. • (1) Cell Seeding and Protein Harvesting: Human peripheral blood mononuclear cells (hPBMCs) at a density of 1×10^6 cells/mL were thawed according to the PBMC Recovery Protocol (Milecell Biotechnologies Inc, Shanghai). […] After 24 hours of compounds treatment, cells were harvested and lysed in RIPA protein lysate containing protease inhibitors on ice for 30 min, followed by centrifugation. The supernatant was aspirated as the extracted total cell protein. The protein concentration of the supernatant was determined using the conventional BCA (Bicinchoninic Acid) assay. • (2) To the collected supernatant, 5X SDS sample loading buffer was added, followed by denaturation at 95°C for 5 minutes. The denatured samples were then separated by SDS-PAGE electrophoresis on a polyacrylamide gel, transferred onto a nitrocellulose membrane (0.45 µm NC membrane), blocked with blocking buffer at room temperature for 1 hour, and subjected to antibody incubation and development procedures according to the antibody manufacturer's instructions (Cell Signaling Technology Company).
(§2) Half-Maximal Degradation Concentration value (the drug concentration required for degrading proteins by 50%, abbreviated as DC50) reads method: comparing the grayscale values of Western blot bands from drug-treated samples with those from blank DMSO-treated controls, and identifying the drug concentration range at which the grayscale value is half that of the DMSO-treated control bands.
(§3) DC50 values can be calculated using ImageJ software to measure grayscale values of Western blot bands from drug-treated samples. The concentration-response curve is fitted to estimate the drug concentration corresponding to half the grayscale value.
(§4) Target protein remaining (%) refers to the percentage of target protein remaining in cells after treatment with protein degrader compounds.
(§5) Calculation method for target protein remaining (%): Use ImageJ software to measure grayscale values of Western blot bands from drug (protein degrader)-treated samples. The grayscale value of drug-treated bands is divided by that of internal control protein bands, and the resulting quotient is normalized to obtain the relative percentage of remaining target protein after protein degrader treatment.
(§6) Target protein degradation rate (%) = 1−target protein remaining (%). [formula]

IKZF2 = molecular target: T3, IKZF2 (Homo sapiens, UniProt Q96SW2+Q9UKS7); assay: as above; type: cell-based
T3 construct: effects of the compounds of the present disclosure on the expression of target proteins in cells; endogenous in cells; host or cells: human PBMCs (Milecell Biotechnologies)
T3 sequence (Q9UKS7 whole entry): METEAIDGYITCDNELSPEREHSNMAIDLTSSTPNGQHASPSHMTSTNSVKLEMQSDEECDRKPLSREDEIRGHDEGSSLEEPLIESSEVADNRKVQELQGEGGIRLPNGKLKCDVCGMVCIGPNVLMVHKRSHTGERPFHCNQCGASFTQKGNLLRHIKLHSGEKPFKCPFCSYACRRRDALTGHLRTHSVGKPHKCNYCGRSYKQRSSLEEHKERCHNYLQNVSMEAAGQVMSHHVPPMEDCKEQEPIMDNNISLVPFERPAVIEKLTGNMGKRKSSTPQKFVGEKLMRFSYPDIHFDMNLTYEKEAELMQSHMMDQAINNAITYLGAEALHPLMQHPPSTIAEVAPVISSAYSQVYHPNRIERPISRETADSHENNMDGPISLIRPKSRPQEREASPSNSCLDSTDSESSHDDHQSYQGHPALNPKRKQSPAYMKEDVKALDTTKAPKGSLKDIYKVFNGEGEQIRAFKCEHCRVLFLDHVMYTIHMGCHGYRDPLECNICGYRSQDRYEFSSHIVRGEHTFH
T3 sequence (Q96SW2 whole entry): as the sequence (Q96SW2 whole entry) above
T3 sequence (Q16531 whole entry partner): as the sequence (Q16531 whole entry partner) above
Method: as §1, §2, §3, §4, §5, §6

IKZF1 = molecular target: T4, IKZF1 (Homo sapiens, UniProt Q13422+Q96SW2); assay: as above; type: cell-based
T4 construct: effects of the compounds of the present disclosure on the expression of target proteins in cells; endogenous in cells; host or cells: human PBMCs (Milecell Biotechnologies)
T4 sequence (Q13422 whole entry): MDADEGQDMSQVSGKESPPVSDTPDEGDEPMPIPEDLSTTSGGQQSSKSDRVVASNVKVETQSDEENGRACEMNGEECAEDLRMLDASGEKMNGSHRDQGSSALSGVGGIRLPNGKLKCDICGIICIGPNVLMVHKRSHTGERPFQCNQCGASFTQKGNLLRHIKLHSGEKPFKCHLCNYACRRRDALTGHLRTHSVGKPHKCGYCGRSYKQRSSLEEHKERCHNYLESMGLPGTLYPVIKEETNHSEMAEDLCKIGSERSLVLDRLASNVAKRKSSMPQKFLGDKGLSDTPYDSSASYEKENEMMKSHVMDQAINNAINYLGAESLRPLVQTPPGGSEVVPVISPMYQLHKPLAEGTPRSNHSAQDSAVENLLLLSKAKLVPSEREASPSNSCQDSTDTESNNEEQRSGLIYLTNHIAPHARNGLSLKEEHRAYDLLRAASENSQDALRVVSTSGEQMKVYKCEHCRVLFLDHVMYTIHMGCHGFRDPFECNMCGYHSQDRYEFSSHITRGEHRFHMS
T4 sequence (Q96SW2 whole entry): as the sequence (Q96SW2 whole entry) above
T4 sequence (Q16531 whole entry partner): as the sequence (Q16531 whole entry partner) above
Method: as §1, §2, §3, §4, §5, §6

IKZF3 = molecular target: T5, IKZF3 (Homo sapiens, UniProt Q96SW2+Q9UKT9); assay: as above; type: cell-based
T5 construct: effects of the compounds of the present disclosure on the expression of target proteins in cells; endogenous in cells; host or cells: human PBMCs (Milecell Biotechnologies)
T5 sequence (Q9UKT9 whole entry): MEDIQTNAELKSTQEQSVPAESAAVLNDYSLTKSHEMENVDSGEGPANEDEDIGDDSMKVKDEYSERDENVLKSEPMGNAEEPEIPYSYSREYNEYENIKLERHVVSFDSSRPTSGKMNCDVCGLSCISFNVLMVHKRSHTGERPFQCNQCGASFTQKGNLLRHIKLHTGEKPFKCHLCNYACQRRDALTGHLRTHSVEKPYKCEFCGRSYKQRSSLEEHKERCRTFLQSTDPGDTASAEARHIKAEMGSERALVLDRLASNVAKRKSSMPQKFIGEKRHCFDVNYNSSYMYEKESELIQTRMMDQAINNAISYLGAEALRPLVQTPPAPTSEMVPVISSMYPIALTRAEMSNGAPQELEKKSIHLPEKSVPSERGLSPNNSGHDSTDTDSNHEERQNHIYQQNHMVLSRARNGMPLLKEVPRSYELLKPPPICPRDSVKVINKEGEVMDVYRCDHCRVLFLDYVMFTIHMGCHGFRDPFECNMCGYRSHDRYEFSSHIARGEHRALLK
T5 sequence (Q96SW2 whole entry): as the sequence (Q96SW2 whole entry) above
T5 sequence (Q16531 whole entry partner): as the sequence (Q16531 whole entry partner) above
Method: as §1, §2, §3, §4, §5, §6

CK1α = molecular target: T6, CK1α (Homo sapiens, UniProt P48729+Q96SW2); assay: as above; type: cell-based
T6 construct: effects of the compounds of the present disclosure on the expression of target proteins in cells; endogenous in cells; host or cells: human PBMCs (Milecell Biotechnologies)
T6 sequence (P48729 whole entry): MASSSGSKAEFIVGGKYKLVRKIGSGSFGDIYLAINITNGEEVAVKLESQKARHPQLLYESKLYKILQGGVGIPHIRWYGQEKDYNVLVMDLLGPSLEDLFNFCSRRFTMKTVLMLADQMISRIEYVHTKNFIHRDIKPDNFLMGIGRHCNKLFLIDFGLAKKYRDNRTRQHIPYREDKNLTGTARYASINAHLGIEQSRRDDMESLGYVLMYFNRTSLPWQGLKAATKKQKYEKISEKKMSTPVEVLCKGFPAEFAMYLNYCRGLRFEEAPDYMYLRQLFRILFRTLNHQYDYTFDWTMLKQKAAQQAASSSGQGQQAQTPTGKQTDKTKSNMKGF
T6 sequence (Q96SW2 whole entry): as the sequence (Q96SW2 whole entry) above
T6 sequence (Q16531 whole entry partner): as the sequence (Q16531 whole entry partner) above
Method: as §1, §2, §3, §4, §5, §6

[2] = 24 hours treatment, compounds at 50 nM and 500 nM (concentration behind the class not stated)
[3] = Western blot, 24 hours of compound treatment, compounds tested at 50 nM and 500 nM (concentration for the table not stated)

T1 sequence (Q96SW2 whole entry): as the sequence (Q96SW2 whole entry) above

Cc1nc(C2=CCN(Cc3cccc4c3CN(C3CCC(=O)NC3=O)C4=S)CC2)c2c3c(sc2n1)CCC3 (stereo not drawn) [GT-08964, 3-(4-((4-(2-methyl-6,7-dihydro-5H-cyclopenta[4,5]thieno[2,3-d]pyrimidin-4-yl)-3,6-dihydropyridin-1(2H)-yl)methyl)-1-thioxoisoindolin-2-yl)piperidine-2,6-dione]
inhibition at 0.5 µM [1]: 53 to 60% | inhibition at 2 µM [1]: 80 to 100% | GSPT1 substrate protein remaining % (GSPT1; [2]): B (80%< substrate protein remaining %≤ 100%) | Wee1 substrate protein remaining % (WEE1; [2]): A (0% ≤ substrate protein remaining % ≤ 80%) | IKZF2 substrate protein remaining % (IKZF2; [2]): B (80%< substrate protein remaining %≤ 100%) | IKZF 1 substrate protein remaining % (IKZF1; [2]): B (80%< substrate protein remaining %≤ 100%) | IKZF3 substrate protein remaining % (IKZF3; [2]): B (80%< substrate protein remaining %≤ 100%) | CK1α substrate protein remaining % (CK1α; [2]): B (80%< substrate protein remaining %≤ 100%)

O=C1CCC(N2Cc3cc(CN4CCN(c5ccncc5)CC4)ccc3C2=S)C(=O)N1 (stereo not drawn) [GT-09233, 3-(5-((4-(pyridin-4-yl)piperazin-1-yl)methyl)-1-thioxoisoindolin-2-yl)piperidine-2,6-dione]
inhibition at 0.5 µM [1]: 60 to 80% | inhibition at 2 µM [1]: 80 to 100% | GSPT1 substrate protein remaining % (GSPT1; [3]): A (0% ≤ substrate protein remaining % ≤ 80%) | Wee1 substrate protein remaining % (WEE1; [3]): A (0% ≤ substrate protein remaining % ≤ 80%) | IKZF2 substrate protein remaining % (IKZF2; [3]): A (0% ≤ substrate protein remaining % ≤ 80%) | IKZF 1 substrate protein remaining % (IKZF1; [3]): A (0% ≤ substrate protein remaining % ≤ 80%) | IKZF3 substrate protein remaining % (IKZF3; [3]): A (0% ≤ substrate protein remaining % ≤ 80%) | CK1α substrate protein remaining % (CK1α; [3]): A (0% ≤ substrate protein remaining % ≤ 80%)

CC1(C)CCC(CN2CC3CCC2CN3Cc2cccc3c2CN(C2CCC(=O)NC2=O)C3=S)=C(c2ccc(Cl)cc2)C1 (stereo not drawn) [GT-08302, 3-(4-((5-((4'-chloro-5,5-dimethyl-3,4,5,6-tetrahydro-[1,1'-biphenyl]-2-yl)methyl)-2,5-diazabicyclo[2.2.2]octan-2-yl)methyl)-1-thioxoisoindolin-2-yl)piperidine-2,6-dione]
inhibition at 0.5 µM [1]: 30 to 40% | inhibition at 2 µM [1]: 80 to 100% | GSPT1 substrate protein remaining % (GSPT1; [3]): B (80%< substrate protein remaining %≤ 100%) | Wee1 substrate protein remaining % (WEE1; [3]): A (0% ≤ substrate protein remaining % ≤ 80%) | IKZF2 substrate protein remaining % (IKZF2; [3]): B (80%< substrate protein remaining %≤ 100%) | IKZF 1 substrate protein remaining % (IKZF1; [3]): B (80%< substrate protein remaining %≤ 100%) | IKZF3 substrate protein remaining % (IKZF3; [3]): B (80%< substrate protein remaining %≤ 100%) | CK1α substrate protein remaining % (CK1α; [3]): B (80%< substrate protein remaining %≤ 100%)

O=C1CCC(N2Cc3cc(CN4CCN(c5ncc(C(F)(F)F)cc5Cl)CC4)ccc3C2=S)C(=O)N1 (stereo not drawn) [GT-09228, 3-(5-((4-(3-chloro-5-(trifluoromethyl)pyridin-2-yl)piperazin-1-yl)methyl)-1-thioxoisoindolin-2-yl)piperidine-2,6-dione]
inhibition at 0.5 µM [1]: 40 to 53% | inhibition at 2 µM [1]: 80 to 100% | GSPT1 substrate protein remaining % (GSPT1; [3]): B (80%< substrate protein remaining %≤ 100%) | Wee1 substrate protein remaining % (WEE1; [3]): B (80%< substrate protein remaining %≤ 100%) | IKZF2 substrate protein remaining % (IKZF2; [3]): B (80%< substrate protein remaining %≤ 100%) | IKZF 1 substrate protein remaining % (IKZF1; [3]): B (80%< substrate protein remaining %≤ 100%) | IKZF3 substrate protein remaining % (IKZF3; [3]): B (80%< substrate protein remaining %≤ 100%) | CK1α substrate protein remaining % (CK1α; [3]): A (0% ≤ substrate protein remaining % ≤ 80%)

O=C1CCC(N2Cc3cc(CN4CCC(c5ncnc6sc7c(c56)CCC7)CC4)ccc3C2=S)C(=O)N1 (stereo not drawn) [GT-09311, 3-(5-((4-(6,7-dihydro-5H-cyclopenta[4,5]thieno[2,3-d]pyrimidin-4-yl)piperidin-1-yl)methyl)-1-thioxoisoindolin-2-yl)piperidine-2,6-dione]
inhibition at 0.5 µM [1]: 60 to 80% | inhibition at 2 µM [1]: 80 to 100% | GSPT1 substrate protein remaining % (GSPT1; [2]): A (0% ≤ substrate protein remaining % ≤ 80%) | Wee1 substrate protein remaining % (WEE1; [2]): A (0% ≤ substrate protein remaining % ≤ 80%) | IKZF2 substrate protein remaining % (IKZF2; [2]): B (80%< substrate protein remaining %≤ 100%) | IKZF 1 substrate protein remaining % (IKZF1; [2]): A (0% ≤ substrate protein remaining % ≤ 80%) | IKZF3 substrate protein remaining % (IKZF3; [2]): A (0% ≤ substrate protein remaining % ≤ 80%) | CK1α substrate protein remaining % (CK1α; [2]): B (80%< substrate protein remaining %≤ 100%)

CC1(C)CCC(CN2CC3CC(C2)N3Cc2ccc3c(c2)CN(C2CCC(=O)NC2=O)C3=S)=C(c2ccc(Cl)cc2)C1 (stereo not drawn) [GT-08160, 3-(5-((3-((4'-chloro-5,5-dimethyl-3,4,5,6-tetrahydro-[1,1'-biphenyl]-2-yl)methyl)-3,6-diazabicyclo[3.1.1]heptan-6-yl)methyl)-1-thioxoisoindolin-2-yl)piperidine-2,6-dione]
inhibition at 0.5 µM [1]: 53 to 60% | inhibition at 2 µM [1]: 80 to 100% | GSPT1 substrate protein remaining % (GSPT1; [2]): A (0% ≤ substrate protein remaining % ≤ 80%) | Wee1 substrate protein remaining % (WEE1; [2]): A (0% ≤ substrate protein remaining % ≤ 80%) | IKZF2 substrate protein remaining % (IKZF2; [2]): A (0% ≤ substrate protein remaining % ≤ 80%) | IKZF 1 substrate protein remaining % (IKZF1; [2]): B (80%< substrate protein remaining %≤ 100%) | IKZF3 substrate protein remaining % (IKZF3; [2]): A (0% ≤ substrate protein remaining % ≤ 80%) | CK1α substrate protein remaining % (CK1α; [2]): B (80%< substrate protein remaining %≤ 100%)

O=C1CCC(N2Cc3c(CN4CC=C(c5cncc(Cl)c5)CC4)cccc3C2=S)C(=O)N1 (stereo not drawn) [GT-08461, 3-(4-((5-chloro-3',6'-dihydro-[3,4'-bipyridin]-1'(2'H)-yl)methyl)-1-thioxoisoindolin-2-yl)piperidine-2,6-dione]
inhibition at 0.5 µM [1]: 60 to 80% | inhibition at 2 µM [1]: 80 to 100% | GSPT1 substrate protein remaining % (GSPT1; [3]): B (80%< substrate protein remaining %≤ 100%) | Wee1 substrate protein remaining % (WEE1; [3]): A (0% ≤ substrate protein remaining % ≤ 80%) | IKZF2 substrate protein remaining % (IKZF2; [3]): B (80%< substrate protein remaining %≤ 100%) | IKZF 1 substrate protein remaining % (IKZF1; [3]): B (80%< substrate protein remaining %≤ 100%) | IKZF3 substrate protein remaining % (IKZF3; [3]): A (0% ≤ substrate protein remaining % ≤ 80%) | CK1α substrate protein remaining % (CK1α; [3]): B (80%< substrate protein remaining %≤ 100%)

CC1(C)CCC(CN2CC3CCC(C2)N3Cc2ccc3c(c2)CN(C2CCC(=O)NC2=O)C3=S)=C(c2ccc(Cl)cc2)C1 (stereo not drawn) [GT-08163, 3-(5-((3-((4'-chloro-5,5-dimethyl-3,4,5,6-tetrahydro-[1,1'-biphenyl]-2-yl)methyl)-3,8-diazabicyclo[3.2.1]octan-8-yl)methyl)-1-thioxoisoindolin-2-yl)piperidine-2,6-dione]
inhibition at 0.5 µM [1]: 53 to 60% | inhibition at 2 µM [1]: 60 to 80% | GSPT1 substrate protein remaining % (GSPT1; [2]): A (0% ≤ substrate protein remaining % ≤ 80%) | Wee1 substrate protein remaining % (WEE1; [2]): A (0% ≤ substrate protein remaining % ≤ 80%) | IKZF2 substrate protein remaining % (IKZF2; [2]): B (80%< substrate protein remaining %≤ 100%) | IKZF 1 substrate protein remaining % (IKZF1; [2]): A (0% ≤ substrate protein remaining % ≤ 80%) | IKZF3 substrate protein remaining % (IKZF3; [2]): B (80%< substrate protein remaining %≤ 100%) | CK1α substrate protein remaining % (CK1α; [2]): B (80%< substrate protein remaining %≤ 100%)

Cc1nc(C2CCN(Cc3cccc4c3CN(C3CCC(=O)NC3=O)C4=S)CC2)c2c3c(sc2n1)CCC3 (stereo not drawn) [GT-08935, 3-(4-((4-(2-methyl-6,7-dihydro-5H-cyclopenta[4,5]thieno[2,3-d]pyrimidin-4-yl)piperidin-1-yl)methyl)-1-thioxoisoindolin-2-yl)piperidine-2,6-dione]
inhibition at 0.5 µM [1]: 60 to 80% | inhibition at 2 µM [1]: 80 to 100% | GSPT1 substrate protein remaining % (GSPT1; [2]): A (0% ≤ substrate protein remaining % ≤ 80%) | Wee1 substrate protein remaining % (WEE1; [2]): A (0% ≤ substrate protein remaining % ≤ 80%) | IKZF2 substrate protein remaining % (IKZF2; [2]): B (80%< substrate protein remaining %≤ 100%) | IKZF 1 substrate protein remaining % (IKZF1; [2]): A (0% ≤ substrate protein remaining % ≤ 80%) | IKZF3 substrate protein remaining % (IKZF3; [2]): A (0% ≤ substrate protein remaining % ≤ 80%) | CK1α substrate protein remaining % (CK1α; [2]): B (80%< substrate protein remaining %≤ 100%)
